Experimental data from ChEMBL document CHEMBL3991601, “The target landscape of clinical kinase drugs” (Science, 2017).
Calls of active or inactive are those of the source.

Key:
[1] = biological target: Dual specificity tyrosine-phosphorylation-regulated kinase 1B (Homo sapiens, UniProt Q9Y463)
[2] = biological target: ALK tyrosine kinase receptor (Homo sapiens, UniProt Q9UM73); format: subcellular, K-562, COLO 205, SK-N-BE(2) and MV-4-11, Cell lysate; settings: read-out: Kd apparent
[3] = biological target: Tyrosine-protein kinase JAK2 (Homo sapiens, UniProt O60674)
[4] = biological target: Cyclin-dependent kinase 18 (Homo sapiens, UniProt Q07002)
[5] = biological target: Putative nucleoside diphosphate kinase (Homo sapiens, UniProt O60361)
[6] = biological target: Nucleoside diphosphate kinase B (Homo sapiens, UniProt P22392)
[7] = biological target: Activin receptor type-1-like (Homo sapiens, UniProt P37023)
[8] = biological target: T1, Uncharacterized protein FLJ45252 (Homo sapiens, UniProt Q6ZSR9)
T1 sequence (Q6ZSR9 whole entry): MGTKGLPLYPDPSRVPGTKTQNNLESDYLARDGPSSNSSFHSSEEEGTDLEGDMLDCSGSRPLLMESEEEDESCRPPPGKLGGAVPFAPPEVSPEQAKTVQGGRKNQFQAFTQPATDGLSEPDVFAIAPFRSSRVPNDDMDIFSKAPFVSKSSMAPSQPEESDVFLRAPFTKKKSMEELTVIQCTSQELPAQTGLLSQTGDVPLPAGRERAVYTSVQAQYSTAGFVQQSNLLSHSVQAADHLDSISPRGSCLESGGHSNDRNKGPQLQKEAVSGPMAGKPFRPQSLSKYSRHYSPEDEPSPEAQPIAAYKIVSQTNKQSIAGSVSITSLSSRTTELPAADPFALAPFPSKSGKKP

[9] = biological target: 5'-AMP-activated protein kinase subunit gamma-2 (Homo sapiens, UniProt Q9UGJ0)
[10] = biological target: T2, General transcription and DNA repair factor IIH helicase subunit XPD (Homo sapiens, UniProt P18074)
T2 sequence (P18074 whole entry): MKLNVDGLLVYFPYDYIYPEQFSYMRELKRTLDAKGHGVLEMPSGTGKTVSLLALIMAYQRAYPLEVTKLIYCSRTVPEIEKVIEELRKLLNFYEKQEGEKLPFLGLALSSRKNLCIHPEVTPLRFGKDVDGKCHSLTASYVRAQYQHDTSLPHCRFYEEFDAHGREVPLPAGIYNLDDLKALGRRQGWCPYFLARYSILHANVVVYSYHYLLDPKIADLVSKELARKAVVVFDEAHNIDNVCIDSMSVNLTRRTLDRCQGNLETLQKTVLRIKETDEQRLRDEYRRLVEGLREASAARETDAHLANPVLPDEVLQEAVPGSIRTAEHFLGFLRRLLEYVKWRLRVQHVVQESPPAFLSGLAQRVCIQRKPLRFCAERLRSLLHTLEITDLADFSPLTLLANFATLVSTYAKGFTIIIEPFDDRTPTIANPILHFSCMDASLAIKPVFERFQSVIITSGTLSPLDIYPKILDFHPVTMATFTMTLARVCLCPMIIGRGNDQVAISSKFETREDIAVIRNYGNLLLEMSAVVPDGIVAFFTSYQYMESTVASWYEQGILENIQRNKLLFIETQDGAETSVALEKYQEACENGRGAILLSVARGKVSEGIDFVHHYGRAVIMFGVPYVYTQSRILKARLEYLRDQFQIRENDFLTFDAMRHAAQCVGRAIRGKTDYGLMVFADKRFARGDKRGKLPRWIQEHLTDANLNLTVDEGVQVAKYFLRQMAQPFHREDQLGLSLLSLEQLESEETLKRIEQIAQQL

[11] = biological target: 5'-AMP-activated protein kinase subunit gamma-1 (Homo sapiens, UniProt P54619)
Also: in the data inactive means no Kd found up to 30 µM.

Sequence of Tyrosine-protein kinase JAK2 (O60674 whole entry): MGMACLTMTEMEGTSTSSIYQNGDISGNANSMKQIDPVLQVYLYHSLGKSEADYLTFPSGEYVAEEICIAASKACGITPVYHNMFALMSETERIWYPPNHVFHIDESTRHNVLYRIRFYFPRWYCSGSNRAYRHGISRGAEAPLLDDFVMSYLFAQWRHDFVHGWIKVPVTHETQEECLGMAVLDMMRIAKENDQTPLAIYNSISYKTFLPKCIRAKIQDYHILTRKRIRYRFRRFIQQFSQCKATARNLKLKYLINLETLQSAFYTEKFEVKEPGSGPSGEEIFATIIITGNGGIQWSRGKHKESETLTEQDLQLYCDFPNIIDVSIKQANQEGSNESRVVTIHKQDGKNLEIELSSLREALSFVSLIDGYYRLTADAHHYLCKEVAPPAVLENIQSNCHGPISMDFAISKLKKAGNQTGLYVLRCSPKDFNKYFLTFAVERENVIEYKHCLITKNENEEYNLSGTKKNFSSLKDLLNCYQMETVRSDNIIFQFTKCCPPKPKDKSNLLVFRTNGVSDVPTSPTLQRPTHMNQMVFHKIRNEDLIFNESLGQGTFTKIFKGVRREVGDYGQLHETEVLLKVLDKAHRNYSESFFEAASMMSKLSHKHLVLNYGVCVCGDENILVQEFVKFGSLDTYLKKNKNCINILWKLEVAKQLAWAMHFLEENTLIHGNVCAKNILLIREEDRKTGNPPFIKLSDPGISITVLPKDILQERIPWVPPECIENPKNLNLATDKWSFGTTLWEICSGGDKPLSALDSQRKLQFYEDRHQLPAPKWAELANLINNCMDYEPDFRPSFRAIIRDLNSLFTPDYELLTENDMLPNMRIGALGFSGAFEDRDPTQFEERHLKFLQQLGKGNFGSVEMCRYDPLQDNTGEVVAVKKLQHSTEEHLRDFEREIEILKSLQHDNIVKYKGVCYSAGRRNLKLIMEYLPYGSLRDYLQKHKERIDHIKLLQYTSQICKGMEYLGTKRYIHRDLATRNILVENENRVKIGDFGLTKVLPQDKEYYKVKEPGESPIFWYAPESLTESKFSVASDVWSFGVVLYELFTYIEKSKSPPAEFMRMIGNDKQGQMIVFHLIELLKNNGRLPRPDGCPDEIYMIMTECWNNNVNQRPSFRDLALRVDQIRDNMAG
Sequence of ALK tyrosine kinase receptor (Q9UM73 whole entry): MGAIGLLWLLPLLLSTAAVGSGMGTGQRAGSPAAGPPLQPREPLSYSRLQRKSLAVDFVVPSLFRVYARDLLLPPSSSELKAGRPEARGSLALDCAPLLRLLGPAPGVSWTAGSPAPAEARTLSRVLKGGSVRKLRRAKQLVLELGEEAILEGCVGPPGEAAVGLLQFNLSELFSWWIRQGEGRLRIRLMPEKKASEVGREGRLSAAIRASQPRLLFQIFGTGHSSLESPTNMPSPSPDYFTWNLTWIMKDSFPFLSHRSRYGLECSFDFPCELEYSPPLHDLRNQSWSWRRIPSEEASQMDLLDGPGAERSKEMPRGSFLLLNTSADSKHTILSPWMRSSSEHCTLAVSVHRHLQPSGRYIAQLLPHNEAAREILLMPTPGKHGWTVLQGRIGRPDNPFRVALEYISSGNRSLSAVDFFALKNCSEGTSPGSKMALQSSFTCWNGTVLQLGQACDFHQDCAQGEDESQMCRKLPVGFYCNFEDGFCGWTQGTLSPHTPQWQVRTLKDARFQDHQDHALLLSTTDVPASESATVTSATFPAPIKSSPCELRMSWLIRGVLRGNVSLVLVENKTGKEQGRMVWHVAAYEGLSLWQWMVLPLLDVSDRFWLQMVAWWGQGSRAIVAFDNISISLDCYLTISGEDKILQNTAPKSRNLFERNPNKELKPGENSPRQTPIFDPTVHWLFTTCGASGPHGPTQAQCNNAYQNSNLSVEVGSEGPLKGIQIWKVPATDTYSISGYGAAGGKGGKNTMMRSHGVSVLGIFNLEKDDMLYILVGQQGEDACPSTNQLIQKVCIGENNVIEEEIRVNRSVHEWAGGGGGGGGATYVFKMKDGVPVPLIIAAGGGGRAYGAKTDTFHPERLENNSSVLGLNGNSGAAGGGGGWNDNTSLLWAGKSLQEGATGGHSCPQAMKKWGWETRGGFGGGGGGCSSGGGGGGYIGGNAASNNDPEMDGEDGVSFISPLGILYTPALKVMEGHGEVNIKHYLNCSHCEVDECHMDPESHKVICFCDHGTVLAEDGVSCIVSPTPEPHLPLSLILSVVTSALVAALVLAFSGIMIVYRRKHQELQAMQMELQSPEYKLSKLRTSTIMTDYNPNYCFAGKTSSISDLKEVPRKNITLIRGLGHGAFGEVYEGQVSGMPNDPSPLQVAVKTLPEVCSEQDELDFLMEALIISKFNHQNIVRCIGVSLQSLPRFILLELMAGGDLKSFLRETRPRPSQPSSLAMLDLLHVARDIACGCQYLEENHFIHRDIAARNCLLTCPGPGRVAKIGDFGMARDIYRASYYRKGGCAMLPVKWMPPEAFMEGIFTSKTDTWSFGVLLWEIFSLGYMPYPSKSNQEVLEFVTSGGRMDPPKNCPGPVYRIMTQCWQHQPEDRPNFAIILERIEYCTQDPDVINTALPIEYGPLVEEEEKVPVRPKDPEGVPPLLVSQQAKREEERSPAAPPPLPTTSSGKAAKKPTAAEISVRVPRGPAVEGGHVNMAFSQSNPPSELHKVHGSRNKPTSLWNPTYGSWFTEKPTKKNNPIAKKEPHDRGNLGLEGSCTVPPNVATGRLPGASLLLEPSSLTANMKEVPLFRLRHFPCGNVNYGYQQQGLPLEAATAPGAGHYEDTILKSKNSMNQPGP
Sequence of Dual specificity tyrosine-phosphorylation-regulated kinase 1B (Q9Y463 whole entry): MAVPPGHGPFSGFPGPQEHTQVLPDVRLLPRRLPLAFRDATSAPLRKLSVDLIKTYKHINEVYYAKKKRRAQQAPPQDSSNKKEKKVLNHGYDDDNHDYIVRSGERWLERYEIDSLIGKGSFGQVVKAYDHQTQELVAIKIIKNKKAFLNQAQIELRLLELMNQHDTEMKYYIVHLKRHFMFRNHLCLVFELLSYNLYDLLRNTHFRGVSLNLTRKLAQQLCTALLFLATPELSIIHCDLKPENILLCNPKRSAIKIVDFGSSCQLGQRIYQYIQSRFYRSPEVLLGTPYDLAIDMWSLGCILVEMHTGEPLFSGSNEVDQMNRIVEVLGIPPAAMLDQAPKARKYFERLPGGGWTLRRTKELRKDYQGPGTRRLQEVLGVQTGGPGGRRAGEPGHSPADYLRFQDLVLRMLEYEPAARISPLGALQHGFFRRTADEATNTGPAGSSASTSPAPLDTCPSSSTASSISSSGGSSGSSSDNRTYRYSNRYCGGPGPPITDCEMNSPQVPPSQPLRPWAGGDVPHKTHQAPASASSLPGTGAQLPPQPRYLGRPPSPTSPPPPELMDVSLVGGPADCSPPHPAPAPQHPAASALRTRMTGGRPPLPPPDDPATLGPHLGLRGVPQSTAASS
Sequence of Activin receptor type-1-like (P37023 whole entry): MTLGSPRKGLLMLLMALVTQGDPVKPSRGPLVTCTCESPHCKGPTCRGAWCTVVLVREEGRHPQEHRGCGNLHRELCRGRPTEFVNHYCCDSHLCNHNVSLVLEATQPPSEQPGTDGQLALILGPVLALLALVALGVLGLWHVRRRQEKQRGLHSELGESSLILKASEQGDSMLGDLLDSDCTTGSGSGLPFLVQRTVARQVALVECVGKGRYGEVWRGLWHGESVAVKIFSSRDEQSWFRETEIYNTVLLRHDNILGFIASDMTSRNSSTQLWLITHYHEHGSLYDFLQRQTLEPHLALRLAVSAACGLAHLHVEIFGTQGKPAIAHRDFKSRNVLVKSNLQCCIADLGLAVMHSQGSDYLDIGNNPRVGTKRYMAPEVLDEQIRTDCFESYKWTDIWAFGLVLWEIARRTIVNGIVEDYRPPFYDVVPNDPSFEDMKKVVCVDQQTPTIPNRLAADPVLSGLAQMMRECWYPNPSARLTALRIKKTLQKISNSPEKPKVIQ
Sequence of 5'-AMP-activated protein kinase subunit gamma-2 (Q9UGJ0 whole entry): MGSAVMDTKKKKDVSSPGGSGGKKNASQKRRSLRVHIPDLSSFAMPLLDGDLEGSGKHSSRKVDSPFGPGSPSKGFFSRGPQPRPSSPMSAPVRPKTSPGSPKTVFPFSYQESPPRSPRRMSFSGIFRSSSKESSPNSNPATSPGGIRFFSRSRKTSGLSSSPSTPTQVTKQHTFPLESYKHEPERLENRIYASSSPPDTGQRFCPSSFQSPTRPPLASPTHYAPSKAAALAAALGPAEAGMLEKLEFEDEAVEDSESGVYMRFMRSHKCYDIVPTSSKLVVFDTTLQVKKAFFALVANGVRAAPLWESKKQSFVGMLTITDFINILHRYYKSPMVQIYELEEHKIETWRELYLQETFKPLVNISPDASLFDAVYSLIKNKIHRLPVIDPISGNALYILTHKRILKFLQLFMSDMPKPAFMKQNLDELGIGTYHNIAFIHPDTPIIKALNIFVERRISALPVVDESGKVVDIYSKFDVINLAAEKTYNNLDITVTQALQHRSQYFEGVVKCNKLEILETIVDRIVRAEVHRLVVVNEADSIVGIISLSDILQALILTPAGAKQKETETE
Sequence of 5'-AMP-activated protein kinase subunit gamma-1 (P54619 whole entry): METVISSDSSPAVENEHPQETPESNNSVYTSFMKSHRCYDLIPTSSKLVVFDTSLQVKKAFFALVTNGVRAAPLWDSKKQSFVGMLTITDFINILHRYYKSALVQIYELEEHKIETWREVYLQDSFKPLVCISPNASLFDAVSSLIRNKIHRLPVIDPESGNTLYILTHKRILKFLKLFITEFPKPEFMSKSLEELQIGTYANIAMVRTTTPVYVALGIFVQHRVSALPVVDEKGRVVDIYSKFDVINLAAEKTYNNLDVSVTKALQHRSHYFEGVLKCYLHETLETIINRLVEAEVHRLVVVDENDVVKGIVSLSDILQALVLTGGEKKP
Sequence of Nucleoside diphosphate kinase B (P22392 whole entry): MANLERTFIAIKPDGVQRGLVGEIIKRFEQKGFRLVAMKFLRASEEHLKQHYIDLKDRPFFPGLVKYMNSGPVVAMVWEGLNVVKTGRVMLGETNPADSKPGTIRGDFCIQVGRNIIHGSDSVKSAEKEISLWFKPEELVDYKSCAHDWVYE

COc1cc2nccc(Oc3ccc(NC(=O)C4(C(=O)Nc5ccc(F)cc5)CC4)cc3)c2cc1OC [CABOZANTINIB]
Kd [1]: > 30 µM (inactive)
Kd [2]: > 30 µM (inactive)
Kd [3]: > 30 µM (inactive)

O=C(Nc1ccc(OC(F)(F)F)cc1)c1sccc1NCc1ccnc2ccccc12 [OSI-930]
Kd [4]: > 30 µM (inactive)

Cc1cc(Nc2nc(N[C@@H](C)c3ncc(F)cn3)ncc2Cl)n[nH]1 [AZD-1480]
Kd [3]: > 30 µM (inactive)

CCc1cc2c(cc1N1CCC(N3CCOCC3)CC1)C(C)(C)c1[nH]c3cc(C#N)ccc3c1C2=O [ALECTINIB]
Kd [1]: > 30 µM (inactive)
Kd [4]: > 30 µM (inactive)

CN(c1ncccc1CNc1nc(Nc2ccc3c(c2)CC(=O)N3)ncc1C(F)(F)F)S(C)(=O)=O [PF-00562271]
Kd [5]: 0.862 µM
Kd [6]: > 30 µM (inactive)

CNC(=O)c1cccc(-c2ccc3c(N4CCOC[C@@H]4C)nc(N4CCOC[C@@H]4C)nc3n2)c1 [VISTUSERTIB]
Kd [1]: > 30 µM (inactive)
Kd [7]: > 30 µM (inactive)
Kd [3]: > 30 µM (inactive)

C=CCn1c(=O)c2cnc(Nc3ccc(N4CCN(C)CC4)cc3)nc2n1-c1cccc(C(C)(C)O)n1 [ADAVOSERTIB]
Kd [4]: > 30 µM (inactive)

CNC(=O)c1cc(COc2nnc(Nc3ccc(Cl)cc3)c3ccoc23)ccn1 [TELATINIB]
Kd [2]: > 30 µM (inactive)

COc1cc2c(Oc3ccc4[nH]c(C)cc4c3F)ncnc2cc1OCCCN1CCCC1 [CEDIRANIB]
Kd [8]: > 30 µM (inactive)
Kd [9]: > 30 µM (inactive)
Kd [10]: > 30 µM (inactive)
Kd [11]: > 30 µM (inactive)

Cn1c(=O)c(F)c(Nc2ccc(I)cc2F)c2c(=O)n(C[C@@H](O)CO)cnc21 [TAK-733]
Kd [6]: > 30 µM (inactive)
Kd [3]: > 30 µM (inactive)

Cc1cc(-c2cc(OC(=O)c3ccccc3)ccc2Cl)cc2nnc(Nc3ccc(OCCN4CCCC4)cc3)nc12 [TG100-801]
Kd [1]: > 30 µM (inactive)
Kd [3]: > 30 µM (inactive)

O=C(NOC[C@H](O)CO)c1ccc(F)c(F)c1Nc1ccc(I)cc1F [MIRDAMETINIB]
Kd [7]: > 30 µM (inactive)
Kd [3]: > 30 µM (inactive)

CC(C)(O)CC(=O)NCCn1ccc2ncnc(Nc3ccc(Oc4cccc(C(F)(F)F)c4)c(Cl)c3)c21 [TAK-285]
Kd [4]: > 30 µM (inactive)

Cc1c(NC(=O)OC[C@@H]2COCCN2)cn2ncnc(Nc3ccc4c(cnn4Cc4cccc(F)c4)c3)c12 [AC-480]
Kd [7]: > 30 µM (inactive)

COc1cc(Nc2ncc(F)c(Nc3ccc4c(n3)N(COP(=O)(O)O)C(=O)C(C)(C)O4)n2)cc(OC)c1OC [FOSTAMATINIB]
Kd [1]: > 30 µM (inactive)
Kd [3]: > 30 µM (inactive)

C[C@@H]1COC(Nc2ccc3ncnc(Nc4ccc(OCc5nccs5)c(Cl)c4)c3c2)=N1 [VARLITINIB]
Kd [2]: > 30 µM (inactive)

COCCN1CCN(Cc2ccc(-c3n[nH]c4c3C(=O)c3c(NC(=O)NN5CCOCC5)cccc3-4)cc2)CC1 [RGB-286638]
Kd [1]: > 30 µM (inactive)

CNC(=O)c1ccc(Nc2ncc(C(F)(F)F)c(NCc3nccnc3N(C)S(C)(=O)=O)n2)cc1 [DEFACTINIB]
Kd [1]: > 30 µM (inactive)
Kd [4]: > 30 µM (inactive)

CCOc1ccn(-c2ccc(F)cc2)c(=O)c1C(=O)Nc1ccc(Oc2ccnc(N)c2Cl)c(F)c1 [BMS-777607]
Kd [8]: > 30 µM (inactive)
Kd [10]: > 30 µM (inactive)
Kd [11]: > 30 µM (inactive)

Cc1c(Cn2c(C)nc3c(C(=O)O)cc(N4CCOCC4)cc32)cccc1C(F)(F)F [GSK-2636771]
Kd [4]: > 30 µM (inactive)

Cn1cc(-c2[nH]c3cc(NC(=O)[C@H](N)C4CCCCC4)cc4c3c2C=NNC4=O)cn1
Kd [2]: > 30 µM (inactive)

NC(=O)c1ccc(N(C(N)=O)c2c(F)cccc2F)nc1-c1ccc(F)cc1F [VX-702]
Kd [5]: > 30 µM (inactive)
Kd [2]: 0.002 µM
Kd [6]: > 30 µM (inactive)

O[C@H]1CC[C@H](Nc2ncc3nc(Nc4c(F)cc(F)cc4F)n([C@H]4CCOC4)c3n2)CC1 [TANZISERTIB]
Kd [1]: > 30 µM (inactive)
Kd [2]: > 30 µM (inactive)

C#Cc1cccc(Nc2ncnc3cc4c(cc23)OCCOCCOCCO4)c1 [ICOTINIB]
Kd [1]: > 30 µM (inactive)
Kd [4]: > 30 µM (inactive)

COc1cc2ncnc(Nc3ccc(O)cc3)c2cc1OC [WHI-P131]
Kd [2]: > 30 µM (inactive)

C=CC(=O)Nc1cc(Nc2nccc(-c3cn(C)c4ccccc34)n2)c(OC)cc1N(C)CCN(C)C [OSIMERTINIB]
Kd [5]: > 30 µM (inactive)
Kd [8]: > 30 µM (inactive)
Kd [6]: > 30 µM (inactive)
Kd [9]: > 30 µM (inactive)
Kd [10]: > 30 µM (inactive)
Kd [11]: > 30 µM (inactive)

FC(F)(F)c1ccc(CNc2ccc(Cc3c[nH]c4ncc(Cl)cc34)cn2)cn1 [PEXIDARTINIB]
Kd [8]: 1.45 µM (active)
Kd [2]: > 30 µM (inactive)
Kd [9]: > 30 µM (inactive)
Kd [10]: > 30 µM (inactive)
Kd [11]: > 30 µM (inactive)

COc1ccc2c(OCc3nnc4ccc(-c5ccccc5)nn34)ccnc2c1 [AMG-208]
Kd [1]: > 30 µM (inactive)
Kd [7]: > 30 µM (inactive)
Kd [3]: > 30 µM (inactive)

CC1(COc2ccc3c(c2)ncn3-c2ccc3cccc(N4CCC(N)CC4)c3n2)COC1 [CRENOLANIB]
Kd [3]: > 30 µM (inactive)

O=C(NC[C@H](O)CO)c1ccncc1Nc1ccc(I)cc1F [PIMASERTIB]
Kd [2]: > 30 µM (inactive)
Kd [3]: > 30 µM (inactive)

CN1CCN(c2nc(C3=C(c4c[nH]c5ccccc45)C(=O)NC3=O)c3ccccc3n2)CC1 [SOTRASTAURIN]
Kd [2]: > 30 µM (inactive)

c1cc(OCCN2CCCCC2)cc(-c2n[nH]c3ccc(-c4nc[nH]n4)cc23)c1 [CC-401]
Kd [4]: > 30 µM (inactive)

O=S(=O)(c1cccc2c(O)nccc12)N1CCCNCC1 [HYDROXYFASUDIL]
Kd [3]: > 30 µM (inactive)

C[C@]1(O)C[C@@H](c2nc(-c3ccc4ccc(-c5ccccc5)nc4c3)c3c(N)nccn32)C1 [LINSITINIB]
Kd [7]: > 30 µM (inactive)
